Source: PMC12176620, “Structure of the ATP-driven methyl-coenzyme M reductase activation complex” (Nature, 2025)
Blank lines part the entries; values can stand above or below the molecule they belong to.

Experiments:
[1] = target: T1, MCR (McrABG core) in the MCR activation complex (Methanococcus maripaludis, UniProt A0A2L1CBB0+A0A2L1CBB3+A0A2L1CBG2); experiment: cryo-EM structure; format: binding
T1 construct: gene mcrA; native complex pulled down from M. maripaludis by genomic N-terminal Twin-Strep-tag on McrC; McrA with native post-translational modifications; with Methyl-coenzyme M reductase operon protein C; Methanogenesis marker protein 7; Methanogenesis marker protein 17; Methanogenesis marker protein 3; Methyl-coenzyme M reductase system component A2; DUF2098 domain-containing protein

A2 component [2] = target: T2, A2 component (Methanococcus maripaludis, UniProt A0A2L1C9A1); experiment: mass photometry (stabilisation of the complex); format: binding; conditions: 5 mM AMP-PNP, 20 mM Ti(III) citrate; indirect, through assembly of A2 with MCR
T2 construct: gene opuCA; with Methyl-coenzyme M reductase subunit alpha; Methyl-coenzyme M reductase subunit beta; Methyl-coenzyme M reductase subunit gamma; Methyl-coenzyme M reductase operon protein C; Methanogenesis marker protein 7; Methanogenesis marker protein 17; Methanogenesis marker protein 3; DUF2098 domain-containing protein

A2 component [3] = target: T2, A2 component; experiment: cryo-EM structure; format: binding; conditions: two ATP with Mg ions, pre-hydrolytic state; sample incubated with 5 mM ATP
[4] = target: methyl-coenzyme M reductase (MCR) core (Methanococcus maripaludis (endogenous in M. maripaludis JJ Δupt)) (UniProt Q6LWZ9); experiment: cryo-EM structure; single-particle analysis of the Strep-Tactin-purified MCR activation complex (1.2 mg/ml), vitrified anaerobically 'as isolated' (maps with A2 at 2.5 Å and without A2 at 2.7 Å) and after 30 min with 5 mM ATP and the CH4 reaction components except Ti(III) citrate (2.1 Å, locally 1.8 Å)

T1 sequence (A0A2L1CBB3 entry or part of it): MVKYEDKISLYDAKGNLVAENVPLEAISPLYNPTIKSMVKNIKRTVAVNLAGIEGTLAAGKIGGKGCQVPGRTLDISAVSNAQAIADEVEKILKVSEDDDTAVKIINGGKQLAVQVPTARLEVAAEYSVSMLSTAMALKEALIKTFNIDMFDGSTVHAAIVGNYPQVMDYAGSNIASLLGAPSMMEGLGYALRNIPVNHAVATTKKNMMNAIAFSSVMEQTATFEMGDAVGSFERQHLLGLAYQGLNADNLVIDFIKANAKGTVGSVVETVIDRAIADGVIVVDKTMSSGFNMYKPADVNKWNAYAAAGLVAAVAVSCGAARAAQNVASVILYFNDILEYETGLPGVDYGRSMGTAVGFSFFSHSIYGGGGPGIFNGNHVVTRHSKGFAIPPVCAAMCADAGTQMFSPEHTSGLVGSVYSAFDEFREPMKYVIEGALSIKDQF
T1 sequence (A0A2L1CBB0 entry or part of it): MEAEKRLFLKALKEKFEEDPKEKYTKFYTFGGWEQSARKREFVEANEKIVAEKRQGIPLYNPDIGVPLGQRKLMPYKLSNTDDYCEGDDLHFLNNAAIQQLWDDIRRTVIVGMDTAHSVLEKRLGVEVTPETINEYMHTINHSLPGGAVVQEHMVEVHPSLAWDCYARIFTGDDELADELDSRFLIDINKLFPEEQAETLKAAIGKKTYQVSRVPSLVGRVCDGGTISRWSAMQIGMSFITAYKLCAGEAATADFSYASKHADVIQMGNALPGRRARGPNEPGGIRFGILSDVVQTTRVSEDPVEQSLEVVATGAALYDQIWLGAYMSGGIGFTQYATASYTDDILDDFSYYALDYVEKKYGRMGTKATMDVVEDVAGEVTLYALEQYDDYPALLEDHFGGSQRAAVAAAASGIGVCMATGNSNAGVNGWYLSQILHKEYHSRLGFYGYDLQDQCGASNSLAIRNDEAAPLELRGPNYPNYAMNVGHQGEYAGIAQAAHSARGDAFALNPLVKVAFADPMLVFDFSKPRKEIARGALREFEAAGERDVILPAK
T1 sequence (A0A2L1CBG2 entry or part of it): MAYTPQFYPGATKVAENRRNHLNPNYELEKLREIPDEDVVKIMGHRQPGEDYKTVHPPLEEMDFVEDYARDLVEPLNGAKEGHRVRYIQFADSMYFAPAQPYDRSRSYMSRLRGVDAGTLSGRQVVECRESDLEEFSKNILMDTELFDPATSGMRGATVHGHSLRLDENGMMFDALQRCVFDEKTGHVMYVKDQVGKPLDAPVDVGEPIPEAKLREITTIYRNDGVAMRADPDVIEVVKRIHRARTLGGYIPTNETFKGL
T1 sequence (G0H3B1 entry or part of it, further chain): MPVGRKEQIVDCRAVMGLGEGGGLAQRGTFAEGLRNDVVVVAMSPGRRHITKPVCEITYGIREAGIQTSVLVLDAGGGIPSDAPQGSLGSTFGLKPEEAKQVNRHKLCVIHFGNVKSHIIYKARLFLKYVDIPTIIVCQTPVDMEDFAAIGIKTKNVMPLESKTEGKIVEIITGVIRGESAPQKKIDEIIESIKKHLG

Molecule: C[C@@H](OP(=O)(O)O)[C@H](NC(=O)CCCCCCS)C(=O)O [CoB–SH]
cryo-EM structure ([1]; distal active site): the phosphate moiety of CoB–SH was kept in place by the positively charged McrA residues

Molecule: C[C@@H](OP(=O)(O)O)[C@H](NC(=O)CCCCCCSSCCS(=O)(=O)O)C(=O)O [CoMS–SCoB]
cryo-EM structure ([1]; proximal active site, next to F430, sample incubated with ATP): In the proximal active site, we found the CoMS–SCoB heterodisulfide next to F430

Molecule: Nc1ncnc2c1ncn2[C@@H]1O[C@H](COP(=O)(O)OP(=O)(O)NP(=O)(O)O)[C@@H](O)[C@H]1O [AMP-PNP]
mass photometry (stabilisation of the complex) (A2 component [2]): A similar effect was observed when AMP-PNP, a non-hydrolysable ATP analogue, was used

Molecule: Nc1ncnc2c1ncn2[C@@H]1O[C@H](COP(=O)(O)OP(=O)(O)OP(=O)(O)O)[C@@H](O)[C@H]1O [ATP]
cryo-EM structure (A2 component [3]): Our structure revealed two ATP molecules and their coordinating Mg ions

occupancy of the A2 component, sample preincubated with 5 mM ATP (% of the particles) [4]: 92
percent of particles with the A2 component, sample 'as isolated' (% of particles) [4]: 58
B1: A2 component (natural protein)
chain: MLLLEVKNVSKSYGDTEVLKNVSFELNEGDVMGVLGRSGAGKSVLLHMLRGMEGYEPTSGQIIYHVAYCPHCENVEAPSQVGKKCECETEYVAKSVDFWNNNEITYALKKKIAIMLQRTFALYGEKTVAENIMEALTAAGYEGKDATEWALNLIKMVKLEHRVAHISRDLSGGEKQRVVLARQIAKNPVIFLADEPTGTLDPKTAKFVHNALTEAVIKHNIAMVITSHWPEVIEELCQKAIWLDKGEMRLVGESKHVVEEFMKTVTSMKEFEKVEVKDELLKLENVEKRYVSVDRGIVKAVDGIDVSINEKEIFGLVGVSGAGKTTLSKIIAAVIPPSKGNYEFRLADEWVDMTKVGPLYRGRAKRYIGMLFQEYSLYPHRTILYNLTESIGLEMPGEFAKMKAEHTLVSVGFTEEEAENMLEKHPSELSVGEKHRVALAQVLIREPHLILLDEPTGTMDPITRNQVAESIQKSRSELDQTYVIVSHDMDFVLNVCDRAALVRGGKIIKTGKPDEIVKILSEEEKDEMIGH
